Test results reported in PubChem BioAssay (NCI).
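These data come from cells grown in 96-well plates and exposed to compound for 48 hours at five concentrations. GI50: concentration for 50% inhibition of growth. TGI denotes the concentration required for complete inhibition of growth.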

Tests used:
Assay in all cases: NCI-60 cell line screen, 48 h
A549 NSCLC = system: A549 NSCLC
BT-549 breast = system: BT-549 breast
CCRF-CEM leukemia = system: CCRF-CEM leukemia
MCF7 breast = system: MCF7 breast
MDA-MB-435 = system: MDA-MB-435
OVCAR-4 ovarian = system: OVCAR-4 ovarian
RXF 393 renal = system: RXF 393 renal
SF-268 CNS = system: SF-268 CNS
SNB-75 CNS = system: SNB-75 CNS
HOP-92 NSCLC = system: HOP-92 NSCLC

Compound | GI50 (A549 NSCLC) | TGI (A549 NSCLC) | GI50 (BT-549 breast) | TGI (BT-549 breast) | GI50 (CCRF-CEM leukemia) | TGI (CCRF-CEM leukemia) | GI50 (MCF7 breast) | TGI (MCF7 breast) | GI50 (MDA-MB-435) | TGI (MDA-MB-435) | GI50 (OVCAR-4 ovarian) | TGI (OVCAR-4 ovarian) | GI50 (RXF 393 renal) | TGI (RXF 393 renal) | GI50 (SF-268 CNS) | TGI (SF-268 CNS) | GI50 (SNB-75 CNS) | TGI (SNB-75 CNS) | TGI (HOP-92 NSCLC) | GI50 (HOP-92 NSCLC)
COc1cccc(N2C(=N)/C(=C3\Nc4ccccc4S3)CC2=O)c1 | 5.49 µM | > 100 µM | 44.9 µM | > 100 µM | 1.91 µM | > 100 µM | 6.65 µM | > 100 µM | > 100 µM | > 100 µM | 12.1 µM | 71.9 µM | 2.61 µM | 11.1 µM | 5.22 µM | > 100 µM | 10.3 µM | 57.3 µM | – | –
COc1ccc(C(=O)C(c2ccc(OC)cc2)C2(O)C(=O)Nc3c(Cl)cc(Cl)cc32)cc1 (stereo not given) | – | 54.9 µM | – | – | – | 44.2 µM | – | – | – | – | – | 20.1 µM | – | 39.6 µM | – | > 100 µM | – | 58.6 µM | 33.2 µM | –
Cc1c(C(=O)/C=C/c2ccc([N+](=O)[O-])cc2)[n+](=O)c2ccccc2n1[O-] | – | > 100 µM | – | – | – | 99.2 µM | – | – | – | – | – | > 100 µM | – | > 100 µM | – | > 100 µM | – | > 100 µM | > 100 µM | –
[CH3][Ge]([CH3])([CH2]CC#N)[S]c1ccccc1 | 2.19 µM | > 100 µM | – | – | 1.38 µM | 4.35 µM | – | – | – | – | 18.6 µM | 50 µM | 11.8 µM | 27 µM | 18.6 µM | 51.6 µM | 23.4 µM | 74 µM | 79.7 µM | 31.2 µM
O=C1NC(c2cccc3ccccc23)Nc2ccc(Cl)cc21 (stereo not given) | – | > 100 µM | – | – | – | 0.0512 µM | 0.0129 µM | > 100 µM | – | 0.000257 µM | – | – | – | 0.0261 µM | – | 23.3 µM | – | 0.000902 µM | – | –
C/C(=C\CNc1ncnc2c1ncn2C1CCCCO1)COP(=O)(O)O (stereo not given) | – | > 100 µM | – | – | – | > 100 µM | – | – | – | – | – | > 100 µM | – | > 100 µM | – | > 100 µM | – | > 100 µM | > 100 µM | –
c1ccc(C2=Nc3ccccc3N3CNN=C23)cc1 | > 100 µM | > 100 µM | – | – | > 100 µM | > 100 µM | > 100 µM | > 100 µM | > 100 µM | > 100 µM | > 100 µM | > 100 µM | – | – | > 100 µM | > 100 µM | 25.8 µM | 86.6 µM | 51.5 µM | 15 µM
CC[C@]1(O)CC2CN(CCc3c([nH]c4ccccc34)C(C(=O)OC)(c3cc4c(cc3OC)N(C=O)[C@H]3[C@@](O)(C(=O)OC)[C@H](OC(C)=O)[C@]5(CC)[C@@H]6C[C@@H]6CN6CC[C@]43[C@@H]65)C2)C1 (stereo not given in full) | < 0.00325 µM | > 30.7 µM | < 0.00325 µM | 0.015 µM | < 0.00325 µM | 0.155 µM | < 0.00325 µM | > 11.7 µM | < 0.00325 µM | < 0.00325 µM | < 0.00325 µM | > 29.9 µM | – | – | < 0.00325 µM | 7.39 µM | < 0.00325 µM | 13.4 µM | 0.0121 µM | < 0.00325 µM
NNC(=O)N/N=C(/CC1(O)C(=O)Nc2ccc(Br)cc21)c1ccccc1 (stereo not given) | – | > 100 µM | – | – | – | 65.2 µM | – | – | – | – | – | – | – | – | – | > 100 µM | – | > 100 µM | 63.8 µM | –
O=C1C=C(Nc2cc(Cl)ccc2Cl)c2ccccc2C1=O | – | > 100 µM | – | – | – | – | – | – | – | – | – | > 100 µM | – | > 100 µM | – | > 100 µM | – | 70.3 µM | 69.7 µM | –
Nc1nc2c(ncn2C2OC(CO)C(O)C2O)c(=O)o1 (stereo not given) | – | > 100 µM | – | – | – | > 100 µM | – | – | – | – | – | > 100 µM | – | > 100 µM | – | > 100 µM | – | > 100 µM | > 100 µM | –
O=C(Nc1ccc(Nc2ccc(NC(=O)c3ccccc3)c3c2C(=O)c2ccccc2C3=O)c2c1C(=O)c1ccccc1C2=O)c1ccccc1 | – | > 100 µM | – | – | – | > 100 µM | – | – | – | – | – | > 100 µM | – | > 100 µM | – | > 100 µM | – | > 100 µM | – | –
Oc1ccc(I)c2cccnc12 | – | > 100 µM | – | – | – | 9.68 µM | – | – | – | – | – | > 100 µM | – | 33.1 µM | – | 72.1 µM | – | – | > 100 µM | –
N#Cc1ncc(-c2ccc(C(F)(F)F)cc2)c(NC2CCCCCC2)n1 | 47.4 µM | > 100 µM | 29.1 µM | > 100 µM | 9.97 µM | > 100 µM | 5.68 µM | > 100 µM | 29.1 µM | > 100 µM | 20.1 µM | > 100 µM | 5.12 µM | > 100 µM | 27.7 µM | > 100 µM | > 100 µM | > 100 µM | – | –
[pH]1p2[pH]p3p1p3[pH]2.c1cc[c]([Ge]([c]2ccccc2)[c]2ccccc2)cc1.c1cc[c]([Ge]([c]2ccccc2)[c]2ccccc2)cc1.c1cc[c]([Ge]([c]2ccccc2)[c]2ccccc2)cc1 | 25.4 µM | > 100 µM | – | – | 28 µM | > 100 µM | – | – | – | – | 25.2 µM | 56.7 µM | 64.9 µM | > 100 µM | 16.4 µM | 40.7 µM | 10.1 µM | 32.4 µM | 29.8 µM | 12.8 µM
O=C(CCl)N1CCN(c2ccccn2)CC1 | – | > 10 µM | – | – | – | 69.2 µM | – | 53 µM | – | – | – | 31 µM | – | 41.6 µM | – | 63.8 µM | – | > 10 µM | 36.3 µM | –
COC12OCCN(C)C1=CC(=O)C1N=NCC12 (stereo not given) | – | > 100 µM | – | – | – | > 100 µM | – | – | – | – | – | – | – | > 100 µM | – | – | – | > 100 µM | > 100 µM | –
Cc1ccc(/C=C(/C#N)n2nnc3cccc(F)c32)cc1 | 0.696 µM | 44.5 µM | 0.634 µM | 8.99 µM | 0.389 µM | > 100 µM | 0.466 µM | 16.6 µM | – | – | 1.01 µM | 33.1 µM | 0.201 µM | 0.563 µM | 0.58 µM | 12.5 µM | 0.212 µM | 0.623 µM | 4.75 µM | 0.309 µM
c1ccc(-c2sc(-c3ccccc3)c3c2C(c2ccccc2)c2c(-c4ccccc4)sc(-c4ccccc4)c2C3c2ccccc2)cc1 (stereo not given) | – | > 100 µM | – | – | – | > 100 µM | – | – | – | – | – | > 100 µM | – | > 100 µM | – | > 100 µM | – | > 100 µM | > 100 µM | –
